Assay results from publication PMC11231114 (EJNMMI Research, 2024).

What was measured:
[1] = Plasma pharmacokinetics of non-radioactive SYN2, single i.v. 2 mg/kg, LC-MS/MS; type: in vivo, Wistar rats
Protocol: The pharmacokinetic study was also conducted using non-radioactive reference standard of [^18F]SYN2 after a single i.v. administration at a dose of 2 mg/kg in rats. Blood samples of about 0.5 ml were collected in K3-EDTA tubes at pre-dose time and 4 min, 15 min, 30 min, 60 min, 4 h, and 24 h after injection (three rats were used at each time point, each rat was bled twice). Blood samples were then centrifuged at approx. 3270 g at 5 ± 3 °C for 10 min to extract plasma, divided in two aliquots and analysed (54 plasma samples in total). The concentrations of SYN2 were determined according to a LC-MS/MS validated method according to the Guidance for Industry (FDA) and Guidance on Validation of Bioanalytical Methods (EMA).

[2] = target: T1, muscarinic M2 acetylcholine receptor (Homo sapiens, UniProt P08172); experiment: Radioligand binding assay (LeadProfilingScreen SafetyScreen panel); conditions: 1 µM
T1 construct: purchased Eurofins Panlabs, Inc. PP68
T1 sequence (P08172 1-466): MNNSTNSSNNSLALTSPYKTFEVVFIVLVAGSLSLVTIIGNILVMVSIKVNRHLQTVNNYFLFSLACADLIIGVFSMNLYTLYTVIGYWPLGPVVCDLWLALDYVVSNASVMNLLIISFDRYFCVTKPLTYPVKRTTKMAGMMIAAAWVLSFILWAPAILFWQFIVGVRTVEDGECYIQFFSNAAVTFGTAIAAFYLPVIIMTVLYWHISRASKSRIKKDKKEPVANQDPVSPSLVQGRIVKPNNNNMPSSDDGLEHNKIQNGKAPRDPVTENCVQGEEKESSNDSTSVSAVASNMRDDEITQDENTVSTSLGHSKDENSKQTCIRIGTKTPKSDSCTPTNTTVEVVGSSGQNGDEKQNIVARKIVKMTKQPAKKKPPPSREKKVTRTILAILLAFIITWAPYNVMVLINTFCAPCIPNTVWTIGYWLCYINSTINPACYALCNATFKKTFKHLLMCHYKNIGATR
Protocol: (§1) The possibility of pharmacological interactions of SYN2 was assessed in vitro in radioligand binding assays on key pharmacological target classes including GPCRs, drug transporters, ion channels, nuclear receptors and enzymes (LeadProfilingScreen SafetyScreen, PP68, Panel of 68 receptors, Eurofins Panlabs, Inc.). There was only one SYN2 concentration of 1 µM used in the study.
(§2) IC50 values from pharmacodynamics assessment were determined by a non-linear, least squares regression analysis using MathIQ™ (ID Business Solutions Ltd., UK). Where inhibition constants (Ki) are presented, the Ki values were calculated using the equation of Cheng and Prusoff using the observed IC50 of the tested compound, the concentration of radioligand employed in the assay, and the historical values for the KD of the ligand (obtained experimentally at Eurofins Panlabs, Inc.). Where presented, the Hill coefficient (nH), defining the slope of the competitive binding curve, was calculated using MathIQ™.

[3] = target: T2, muscarinic acetylcholine M1 receptor (Homo sapiens, UniProt P11229); experiment: as above; conditions: 1 µM
T2 construct: purchased Eurofins Panlabs, Inc. PP68
T2 sequence (P11229 1-460): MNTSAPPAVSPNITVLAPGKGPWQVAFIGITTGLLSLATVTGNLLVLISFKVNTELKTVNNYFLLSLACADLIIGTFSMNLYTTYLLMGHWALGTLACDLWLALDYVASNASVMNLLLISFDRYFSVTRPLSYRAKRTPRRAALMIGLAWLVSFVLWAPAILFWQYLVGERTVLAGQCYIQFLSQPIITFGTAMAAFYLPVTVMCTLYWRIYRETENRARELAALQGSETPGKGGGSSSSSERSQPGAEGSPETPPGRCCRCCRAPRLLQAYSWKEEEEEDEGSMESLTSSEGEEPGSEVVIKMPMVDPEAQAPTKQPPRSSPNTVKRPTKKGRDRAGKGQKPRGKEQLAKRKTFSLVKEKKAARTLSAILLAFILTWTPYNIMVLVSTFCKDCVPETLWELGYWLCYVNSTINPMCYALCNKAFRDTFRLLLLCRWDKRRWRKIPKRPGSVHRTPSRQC
Protocol: as §1, §2

potassium channel hERG = target: T3, potassium channel hERG (Homo sapiens, UniProt Q12809); experiment: as above; conditions: 1 µM
T3 construct: purchased Eurofins Panlabs, Inc. PP68
T3 sequence (Q12809 whole entry): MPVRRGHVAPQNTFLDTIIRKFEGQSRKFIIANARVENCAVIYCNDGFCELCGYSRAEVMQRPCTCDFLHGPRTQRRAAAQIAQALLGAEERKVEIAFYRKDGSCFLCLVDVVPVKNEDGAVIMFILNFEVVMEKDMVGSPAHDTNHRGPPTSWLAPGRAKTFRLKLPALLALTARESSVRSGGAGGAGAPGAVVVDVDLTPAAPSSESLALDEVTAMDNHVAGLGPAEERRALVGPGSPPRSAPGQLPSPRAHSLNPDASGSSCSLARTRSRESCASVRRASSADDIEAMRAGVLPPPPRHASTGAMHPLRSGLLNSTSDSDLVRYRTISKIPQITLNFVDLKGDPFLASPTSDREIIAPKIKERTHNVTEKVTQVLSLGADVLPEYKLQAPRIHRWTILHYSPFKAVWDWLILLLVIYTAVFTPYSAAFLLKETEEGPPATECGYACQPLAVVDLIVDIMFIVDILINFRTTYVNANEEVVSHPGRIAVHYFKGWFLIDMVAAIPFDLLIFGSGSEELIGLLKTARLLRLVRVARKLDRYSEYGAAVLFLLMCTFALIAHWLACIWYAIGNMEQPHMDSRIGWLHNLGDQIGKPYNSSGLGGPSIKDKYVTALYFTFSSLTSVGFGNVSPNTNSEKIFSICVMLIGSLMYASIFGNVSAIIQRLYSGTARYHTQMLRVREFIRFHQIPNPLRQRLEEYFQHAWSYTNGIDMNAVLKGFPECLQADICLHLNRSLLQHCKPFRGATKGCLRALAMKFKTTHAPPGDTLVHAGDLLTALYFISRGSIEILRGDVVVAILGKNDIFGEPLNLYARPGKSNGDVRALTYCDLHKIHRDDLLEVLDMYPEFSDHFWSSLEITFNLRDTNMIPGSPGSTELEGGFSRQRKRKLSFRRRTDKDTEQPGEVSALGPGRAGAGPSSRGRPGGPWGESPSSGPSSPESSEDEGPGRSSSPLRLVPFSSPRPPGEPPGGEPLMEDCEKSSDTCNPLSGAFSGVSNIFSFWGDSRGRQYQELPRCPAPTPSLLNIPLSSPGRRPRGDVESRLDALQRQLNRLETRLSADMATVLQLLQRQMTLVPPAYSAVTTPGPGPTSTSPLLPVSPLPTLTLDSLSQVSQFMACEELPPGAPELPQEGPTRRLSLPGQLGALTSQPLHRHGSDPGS
Protocol: as §1, §2

[4] = system: GPCRs, drug transporters, ion channels, nuclear receptors and enzymes; experiment: Radioligand binding assays, remaining 65 assays of the panel of 68; conditions: 1 µM
Protocol: as §1, §2

hERG = hERG (Homo sapiens, UniProt Q12809); experiment: Functional assay at several concentrations; type: biochemical; conditions: antagonistic effect
Sequence of hERG (Q12809 whole entry): as above
Protocol: (§3) IC50 values from pharmacodynamics assessment were determined by a non-linear, least squares regression analysis using MathIQ™ (ID Business Solutions Ltd., UK). […] Where presented, the Hill coefficient (nH), defining the slope of the competitive binding curve, was calculated using MathIQ™.

muscarinic M2 = target: T4, muscarinic M2 (Homo sapiens, UniProt P08172); experiment: Functional assay at several concentrations; type: biochemical; conditions: antagonistic effect
T4 sequence (P08172 1-466): T1 sequence (P08172 1-466)
Protocol: as §3

dog hepatocytes = experiment: Metabolite profiling in cryopreserved hepatocytes (in vitro MetID); type: in vitro ADME; conditions: for Relative abundance of metabolites calculated as % of parent (SYN2), Dog: 1 µM SYN2, 37 °C
Protocol: (§4) The metabolite profiling and characterization experiment of SYN2 molecule (in vitro MetID, Admescope) was conducted to evaluate potential metabolic pathways. In order to characterize the metabolites of SYN2, the compound was incubated in cryopreserved rat, dog and human hepatocytes. Prior to the incubation, the hepatocytes were thawed, suspended in Williams medium E and then centrifuged to receive a target density of about 1 million cells/ml. A SYN2 solution of 1 µM was then added to the hepatocyte suspension and incubated at 37 °C for 0, 30 and 60 min. The incubations were stopped by the addition of acetonitrile, then frozen and centrifuged to remove precipitated proteins. Supernatants were then analysed with ultra-performance liquid chromatography (UPLC) and high-resolution mass spectrometry (HRMS).
(§5) Compound Discoverer (CD) was used for data mining with manual confirmation for metabolite profiling and characterization.

human hepatocytes = experiment: as above; type: in vitro ADME; conditions: for Relative abundance of metabolites calculated as % of parent (SYN2), Human: 1 µM SYN2, 37 °C
Protocol: as §4, §5

rat hepatocytes = experiment: as above; type: in vitro ADME; conditions: for Relative abundance of metabolites calculated as % of parent (SYN2), Rat: 1 µM SYN2, 37 °C
Protocol: as §4, §5

Wistar rats = experiment: Extended single dose toxicity study, i.v. 2 mg/kg b.w.
Protocol: Throughout the experiment, the animals’ behaviour was observed and their weight recorded.
The normality distribution was tested with Shapiro-Wilk test. For homogeneity of variance Brown-Forsythe test has been used. For normal distribution and homogeneous variances results, Student’s t-test was used. In the absence of normal distribution, Mann-Whitney test was used. In the case of non-homogenous variance, Cochrane-Cox test was used.

[5] = Expected human Cmax after body surface area correction; conditions: read-out: expected Cmax, proposed maximum limit dose of 100 µg (2 µg/kg for a 50-kg patient)
[6] = clinical examinations, 2 mg/kg b.w. i.v., treated vs control
[7] = clinical-chemical examinations, 2 mg/kg b.w. i.v., treated vs control
[8] = post mortem examination, 2 mg/kg b.w. i.v., treated vs control

CN(C)c1ccc2cc3ccc(N(C)C)cc3[n+](CCF)c2c1 [SYN2]
AUCt ([1]; rat plasma): 73.75 ng·h/mL | Clast ([1]; rat plasma): 8.95 ng/mL | Cmax ([1]; rat plasma): 368.67 ng/mL | Tmax ([1]; rat plasma): 4.2 min | Vz ([1]; rat plasma): 0.99 L/kg | Cl ([1]; rat plasma clearance): 43.2 mL/min/kg | T½λz ([1]; terminal half-life, rat plasma): 15.6 min | inhibition [2]: 68% | inhibition [3]: 58% | inhibition (potassium channel hERG): 57% | mean response, remaining 65 assays [4]: 7.63% | median response, remaining 65 assays [4]: 4% | IC50 (hERG): ~1000 nM | IC50 (muscarinic M2): ~1000 nM | Relative abundance of metabolites calculated as % of parent (SYN2), Dog (dog hepatocytes; 30 min): 100 % of parent | Relative abundance of metabolites calculated as % of parent (SYN2), Dog (dog hepatocytes; 60 min): 100 % of parent | unchanged parent remaining (dog hepatocytes; after 60 min, dog hepatocytes): 5% | Relative abundance of metabolites calculated as % of parent (SYN2), Human (human hepatocytes; 30 min): 100 % of parent | Relative abundance of metabolites calculated as % of parent (SYN2), Human (human hepatocytes; 60 min): 100 % of parent | unchanged SYN2 remaining (human hepatocytes; after 60 min, human hepatocytes): 70% | Relative abundance of metabolites calculated as % of parent (SYN2), Rat (rat hepatocytes; 30 min): 100 % of parent | Relative abundance of metabolites calculated as % of parent (SYN2), Rat (rat hepatocytes; 60 min): 100 % of parent | unchanged parent remaining (rat hepatocytes; after 60 min, rat hepatocytes): 32% | Body weight (Wistar rats; [6]): - | Clinical observations (Wistar rats; [6]): - | Mortality (Wistar rats; [6]): - | Biochemical investigations (Wistar rats; [7]): + | Enzymatic investigations (Wistar rats; [7]): + | Haematological investigations (Wistar rats; [7]): - | Gross examination (Wistar rats; [8]): + | Histopathological examinations (Wistar rats; [8]): + | Weight of internal organs (Wistar rats; [8]): + | Tolerability in the toxicological study (Wistar rats; single i.v. 2 mg/kg b.w., Wistar rats): well-tolerated | No Observed Adverse Effect Level (NOAEL) (Wistar rats; single i.v. dose, Wistar rats): 2 mg/kg | Cmax [5]: 1.1 nM
